Ends that are not written are not given here.
What was measured:
P. aeruginosa MurF [1] = target: T1, P. aeruginosa MurF (Pseudomonas aeruginosa, UniProt Q9EY48); test: MurF kinetics with respect to D-Ala-D-Ala, spectrophotometric (Lanzetta reagent) ATPase assay; format: biochemical
T1 construct: made in house
Protocol: (§1) The ATPase activity of P. aeruginosa MurF was quantified by a colorimetric assay that measures the release of nanomoles of inorganic phosphate using the Lanzetta reagent. The reaction mixture (100 μl), held at room temperature, contained 40 nM of purified MurF from a fresh aliquot, 1 mM ATP, 100 μM UDP-MurNAc-Ala-Glu-meso-A2pm and 5 mM D-Ala-D-Ala in buffer C (100 mM Tris-HCl pH 8.6, 40 mM KCl, 500 mM NaCl, 1 mg/ml bovine serum albumin and 10 mM MgCl2). Reaction time was 15 min before adding 800 μl of the Lanzetta reagent. After an additional 5 min for colour development, 100 μl of 34% (w/v) sodium citrate was added to stop the reaction. The optical density at 660 nm was immediately measured with a Cary spectrophotometer (Varian, Mississauga, Ontario, Canada). The amount of inorganic phosphate released by MurF was determined by comparison to the linear portion of a phosphate standard curve with a minimum R^2 value of 0.99. The phosphate content of each component in the reaction was subtracted from the total phosphate measured, negative controls were done without enzyme or substrate, and assays were done in triplicate. Different concentrations of each substrate and NaCl were tested to determine optimal conditions for the study of the activity of MurFp1.
The maximal specific activity, the catalytic constant (kcat), the Michaelis-Menten constant (Km) and the enzyme efficiency (kcat/Km) were determined for MurF with respect to D-Ala-D-Ala. Kinetic parameters were determined by nonlinear regression analysis with a square matrix of enzyme velocities following the Michaelis-Menten equations using the Enzyme Kinetics Module version 1 of SigmaPlot version 8.

MurF = settings: 12-mer phage library, elution with glycine-HCl, 1 mM ATP or 1 mM D-Ala-D-Ala; ten phages sequenced per elution condition; in words
Protocol: Phage display screening was performed with the PH.D.-12 phage library (New England Biolabs, Mississauga, Ontario, Canada). […] Phages encoding selected peptides were eluted at the end of the third round using 100 μl of 0.2 M glycine-HCl (pH 2.2) [17], and 100 μl of 1 mM ATP or 1 mM D-Ala-D-Ala for 30 min. The DNA of ten phages was prepared and sequenced with a -96 gIII primer (New England Biolabs) for each elution condition [23].

P. aeruginosa MurF [2] = target: T1, P. aeruginosa MurF; test: MurF inhibition by MurFp1, spectrophotometric (Lanzetta reagent) ATPase assay; format: biochemical
Protocol: as §1
MurFp1 was synthesized and purified as previously described. Peptide purity (> 95%) was analyzed by HPLC and molecular mass (1424.68 daltons) was confirmed by MALDI-TOF mass spectroscopy. […]
Inhibition of MurF enzymatic activity by MurFp1 was measured by the spectrophotometric assay described above. […] The effect of non-specific peptides was analysed on MurF enzymatic activity, with and without UDP-MurNAc-Ala-Glu-A2pm in the pre-incubation step. […]
Kinetic data were fitted to the appropriate model equations using the Sigmaplot Enzyme Kinetics Module. Steady-state inhibition kinetic parameters were determined by nonlinear regression analysis using the least squares method as a reference to ensure accurate dataset fitting and to generate error estimates for each individual observation. […]

T1 sequence (Q9EY48 entry or part of it): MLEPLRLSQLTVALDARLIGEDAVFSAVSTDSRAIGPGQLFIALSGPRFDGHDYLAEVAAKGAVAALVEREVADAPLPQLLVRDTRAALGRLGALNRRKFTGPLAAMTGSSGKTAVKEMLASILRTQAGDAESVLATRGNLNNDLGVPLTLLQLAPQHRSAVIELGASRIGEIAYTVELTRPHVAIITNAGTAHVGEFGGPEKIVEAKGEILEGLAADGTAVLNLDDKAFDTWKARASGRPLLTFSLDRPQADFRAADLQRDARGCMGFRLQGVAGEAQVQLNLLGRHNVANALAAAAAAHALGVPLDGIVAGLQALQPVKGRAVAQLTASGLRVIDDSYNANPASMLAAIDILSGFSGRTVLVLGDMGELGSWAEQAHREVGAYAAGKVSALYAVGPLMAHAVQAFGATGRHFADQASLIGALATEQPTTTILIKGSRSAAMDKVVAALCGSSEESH

## D-Alanyl-D-Alanine [D-Ala-D-Ala]
P. aeruginosa MurF [1]; MurF, with respect to D-Ala-D-Ala, pH 8.6, room temperature
  Km: 115 ± 10 µM
P. aeruginosa MurF [1]; ligation to UDP-MurNAc-Ala-Glu-meso-A2pm, from kcat
  ligations of D-Ala-D-Ala per MurF active site (kcat): about 100 per min
P. aeruginosa MurF [1]; with respect to D-Ala-D-Ala, pH 8.6, room temperature
  kcat/Km: 14200 ± 2500 M⁻¹ s⁻¹

## VSANRHLGGNLP
MurF
  recovery in third round of bio-panning: recovered once by both the ATP and D-Ala-D-Ala elutions

## TMGFTAPRFPHY [MurFp1]
P. aeruginosa MurF [2]; 2 mM MurFp1, 30-minute pre-incubation of MurF with MurFp1, no substrate in pre-incubation
  inhibition at 2000 µM: 50%
P. aeruginosa MurF [2]; 30 min pre-incubation with MurF, MurFp1 and UDP-MurNAc-Ala-Glu-meso-A2pm, 40 nM MurF, pH 8.6, room temperature, 15 min reaction, OD 660 nm, assays in triplicate
  IC50: 250 ± 10 µM
P. aeruginosa MurF [2]; each MurFp1 concentration used, 30 min pre-incubation with UDP-MurNAc-Ala-Glu-A2pm, in words
  effect on Km for D-Ala-D-Ala: remained almost the same
